What is called MIC is the lowest concentration found to suppress growth.

Converted amounts (≈) assume the structure as drawn.

The values below come from ChEMBL document CHEMBL1629650 (2009).

Holding throughout (type): functional
For assay [1], the system named is Mycobacterium tuberculosis. Kind of assay: Antibacterial activity against HYG cassette-positive Mycobacterium tuberculosis B5400 by modified conventional agar proportion method.
In assay [2] the test system is Mycobacterium tuberculosis. Put plainly: Antibacterial activity against HYG cassette-positive Mycobacterium tuberculosis B5201 by modified conventional agar proportion method.
Assay [3] deals with Mycobacterium tuberculosis. Put plainly: Antibacterial activity against Mycobacterium tuberculosis Beijing by modified conventional agar proportion method.
For assay [4], the system named is Mycobacterium tuberculosis. Kind of assay: Antibacterial activity against Mycobacterium tuberculosis H37Rv by modified conventional agar proportion method.
The test system of assay [5] is Mycobacterium tuberculosis. Kind of assay: Antibacterial activity against HYG cassette-positive Mycobacterium tuberculosis B5401 by modified conventional agar proportion method.
In assay [6] the test system is Mycobacterium tuberculosis. Kind of assay: Antibacterial activity against HYG cassette-positive Mycobacterium tuberculosis B5200 by modified conventional agar proportion method.
Assay [7] relates to Mycobacterium tuberculosis. Kind of assay: Antibacterial activity against HYG cassette-positive Mycobacterium tuberculosis Rv8100 by modified conventional agar proportion method.
Assay [8] has as its system Mycobacterium tuberculosis. Put plainly: Antibacterial activity against HYG cassette-negative Mycobacterium tuberculosis Beijing by modified conventional agar proportion method.
The subject of assay [9] is Mycobacterium tuberculosis. Put plainly: Antibacterial activity against HYG cassette-positive Mycobacterium tuberculosis RvAS9 by modified conventional agar proportion method.
Assay [10] relates to Mycobacterium tuberculosis. Put plainly: Antibacterial activity against HYG cassette-negative Mycobacterium tuberculosis H37Rv by modified conventional agar proportion method.
The subject of assay [11] is Mycobacterium tuberculosis. Kind of assay: Antibacterial activity against HYG cassette-positive Mycobacterium tuberculosis Rv4401 by modified conventional agar proportion method.
For assay [12], the system named is Mycobacterium tuberculosis. Put plainly: Antibacterial activity against HYG cassette-positive Mycobacterium tuberculosis BAS10 by modified conventional agar proportion method.
Assay [13] has as its system Mycobacterium tuberculosis. Kind of assay: Antibacterial activity against HYG cassette-positive Mycobacterium tuberculosis Rv8101 by modified conventional agar proportion method.
The test system of assay [14] is Mycobacterium tuberculosis. Put plainly: Antibacterial activity against HYG cassette-positive Mycobacterium tuberculosis Rv4400 by modified conventional agar proportion method.

`CC[C@@H](CO)NCCN[C@@H](CC)CO` [ETHAMBUTOL]: the MIC in assay [1], in assay [2], in [3], in assay [4], in [5] and in [6] was 5 µg/mL (≈ 24.5 µM) in each case. Also, the minimal inhibitory concentration (MIC) in assay [7] was 5 µg/mL (≈ 24.5 µM); in [8] it was 5 µg/mL (≈ 24.5 µM); in assay [9], 5 µg/mL (≈ 24.5 µM); in [10], 5 µg/mL (≈ 24.5 µM); in [11], 10 µg/mL (≈ 48.9 µM); in [12], 5 µg/mL (≈ 24.5 µM). Besides, the MIC in assay [13] was 5 µg/mL (≈ 24.5 µM); in assay [14], 10 µg/mL (≈ 48.9 µM).
